The values below come from article PMC6099553, “Novel Structural Insight into Inhibitors of Heme Oxygenase-1 (HO-1) by New Imidazole-Based Compounds: Biochemical and In Vitro Anticancer Activity Evaluation” (Molecules : A Journal of Synthetic Chemistry and Natural …, 2018).

Series [1] relates to HO-1. More on the design: method as in PMID 23097500. The note with it: Figure 1; cited from earlier work.
The test system of series [2] is HO-2. The arrangement: method as in PMID 23097500. The note with it: Figure 1; cited from earlier work.
Another series concerns MDA-MB-231 cells. Put plainly: In vitro cytotoxicity, sulforhodamine B assay, MDA-MB-231. It counts as cell-based. Particulars: Homo sapiens, hormone-resistant breast cancer cells, 72 h, SRB. As for the experimental part: (§1) MDA-MB-231 cells (hormone resistant), MCF-7 (hormone sensitive), PC3 cells (hormone resistant), DU145 cells (hormone resistant), LnCap cells (hormone sensitive), B16, and HEK cells were maintained in complete growth media (DMEM/Ham’s F12 supplemented with 10% fetal bovine serum, […], 100 units/mL penicillin, 100 units/mL of streptomycin, and 2.2 g/L of NaHCO3) at 37 °C in a humidified atmosphere of 5% CO2. For all procedures, cells were harvested using TrypLE Express (Life Technologies, Auckland, New Zealand).
(§2) To test the cytotoxic effect of HO inhibitors, cells (8 × 10^3 cells/well) were seeded into 96-well plates and incubated for 24 h. This was followed by treatment with HO inhibitors at the concentrations 1.1–200 μM (1.1–1000 μM for HEK cells) of compound 1. In addition, the cytotoxicity of doxorubicin (5 μM, 10 μM, and 30 μM) and a combination of doxorubicin 5 μM and 37 μM 1 was assessed using B16 cells. In all experiments, the cells were incubated for 72 h. Following the incubation, cells were fixed using 10% trichloroacetic acid (TCA). Cytotoxicity was determined using the sulforhodamine B assay as previously described. […] Treatments were performed in triplicate and data represents mean of three independent experiments.

Another series has as its system MCF-7 cells. Put plainly: In vitro cytotoxicity, sulforhodamine B assay, MCF-7. It counts as cell-based. Particulars: Homo sapiens, MCF7; hormone-sensitive breast cancer cells, 72 h, SRB. The method, then: as §1
To test the cytotoxic effect of HO inhibitors, cells (8 × 10^3 cells/well) were seeded into 96-well plates and incubated for 24 h. This was followed by treatment with HO inhibitors at the concentrations 1.1–200 μM (1.1–1000 μM for HEK cells) of compound 1. In addition, the cytotoxicity of doxorubicin (5 μM, 10 μM, and 30 μM) and a combination of doxorubicin 5 μM and 37 μM 1 was assessed using B16 cells. In all experiments, the cells were incubated for 72 h. Following the incubation, cells were fixed using 10% trichloroacetic acid (TCA). Cytotoxicity was determined using the sulforhodamine B assay as previously described. […]
Figure 3 Cytotoxicity of compound 1 against MCF-7 and B16 cells. […] At the end of treatment, cell number was determined using the sulforhodamine B assay. Data are expressed as mean ± SEM (n = 3). […]
A general note: In SRB staining, fixed cells bind dye roughly in proportion to their protein.

In another series the test system is DU145 cells. Put plainly: In vitro cytotoxicity, sulforhodamine B assay, DU145. It counts as cell-based. Particulars: Homo sapiens, DU-145; hormone-resistant prostate cancer cells, 72 h, SRB. The method, then: as §1, §2
A further series concerns PC3 cells. Put plainly: In vitro cytotoxicity, sulforhodamine B assay, PC3. It counts as cell-based. The note with it: Homo sapiens, PC-3; hormone-resistant prostate cancer cells, 72 h, SRB. As for the experimental part:
as §1, §2

The test system of the next series is LnCap cells. Put plainly: In vitro cytotoxicity, sulforhodamine B assay, LnCap. It counts as cell-based. Particulars: Homo sapiens, hormone-sensitive prostate cancer cells, 72 h, SRB. The method, then: as §1, §2
A further series deals with B16 cells. Put plainly: In vitro cytotoxicity, sulforhodamine B assay, B16 (alone and with doxorubicin). It counts as cell-based, murine. Particulars: for IC50: murine melanoma cells, 72 h, SRB. As for the experimental part: as §1
To test the cytotoxic effect of HO inhibitors, cells (8 × 10^3 cells/well) were seeded into 96-well plates and incubated for 24 h. This was followed by treatment with HO inhibitors at the concentrations 1.1–200 μM (1.1–1000 μM for HEK cells) of compound 1. […] In all experiments, the cells were incubated for 72 h. Following the incubation, cells were fixed using 10% trichloroacetic acid (TCA). Cytotoxicity was determined using the sulforhodamine B assay as previously described. […] Treatments were performed in triplicate and data represents mean of three independent experiments.
Figure 3 Cytotoxicity of compound 1 against MCF-7 and B16 cells. (A) MCF-7 (hormone-sensitive breast cancer cells) and (B) B16 (melanoma) cells were treated with 1.1–200 μM of compound 1 for 72 h. Control wells were treated with vehicle only (0.2% DMSO). At the end of treatment, cell number was determined using the sulforhodamine B assay. Data are expressed as mean ± SEM (n = 3). Non-linear regression and IC50 values determination were performed using GraphPad Prism 6.
Figure 4 Cytotoxicity of compound 1 in combination with different concentration of doxorubicin (doxo) against B16 cells. Data are expressed as mean ± SEM (n = 3). *** Significant vs. untreated control cells: p < 0.001.

A further series concerns HEK cells. Put plainly: In vitro cytotoxicity, sulforhodamine B assay, HEK (healthy cells). It counts as cell-based, human. The method, then: as §1, §2
For series [3], the target named is T1, HO-1 (Rattus norvegicus, UniProt P06762).
T1 construct: selected in order to use the most native (i.e., closest to in vivo) forms of HO-1 and HO-2; from tissue; host or cells: spleen microsomal fraction of male Sprague-Dawley rats
T1 sequence (P06762 1-289): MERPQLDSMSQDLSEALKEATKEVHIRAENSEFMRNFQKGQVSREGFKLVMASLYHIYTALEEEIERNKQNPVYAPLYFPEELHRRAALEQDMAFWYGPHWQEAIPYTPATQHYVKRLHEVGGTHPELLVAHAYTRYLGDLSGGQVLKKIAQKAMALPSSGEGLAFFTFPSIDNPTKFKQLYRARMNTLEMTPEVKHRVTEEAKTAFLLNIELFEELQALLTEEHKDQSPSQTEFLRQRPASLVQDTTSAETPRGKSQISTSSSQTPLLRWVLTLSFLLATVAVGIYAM
Put plainly: HO-1 inhibition, rat spleen microsomal fraction, bilirubin formation. Particulars: for IC50: rat spleen microsomes, mean ± SD, triplicate. It counts as biochemical. As for the experimental part:
Inhibition activity assay for HO-1 was performed by extracting the enzyme from the rat spleen microsomal fraction. HO-1 activity was determined by measuring the formation of BR using the difference in absorbance at 464–530 nm, as described in the experimental section. Inhibition activity data are expressed as IC50 (μM) and obtained results are outlined in Table 2, utilizing Azalanstat as a reference compound.
HO-1 and HO-2 were obtained from rat spleen and brain, respectively, as the microsomal fraction prepared by differential centrifugation; the dominance of HO-1 protein in the rat spleen and of HO-2 in the rat brain has been well documented. These particular microsomal preparations were selected in order to use the most native (i.e., closest to in vivo) forms of HO-1 and HO-2. Spleen and brain (Sprague–Dawley rats) microsomal fractions were prepared according to the procedure outlined by Ryter et al.. The experiments reported in the present paper complied with current Italian law and met the guidelines of the Institutional Animal Care and Use Committee of University of Catania (Italy). The experiments were performed in male Sprague–Dawley albino rats (150 g body weight and age 45 d). They had free access to water and were kept at room temperature with a natural photo-period (12 h light-12 h dark cycle). For measuring HO-1 and HO-2 activities, each rat was sacrificed and their spleen and brain were excised and weighed. A homogenate (15%, w/v) of spleens and brains pooled from four rats was prepared in ice-cold HO-homogenizing buffer (50 mM Tris buffer, pH 7.4, containing 0.25 M sucrose) using a Potter–Elvehjem homogenizing system with a Teflon pestle. The microsomal fraction of rat spleen and brain homogenate was obtained by centrifugation at 10,000 rpm for 20 min at 4 °C, followed by centrifugation of the supernatant at 100,000 rpm for 60 min at 4 °C. The 100,000 rpm pellet (microsomes) was resuspended in 100 mM potassium phosphate buffer, pH 7.8, containing 2 mM MgCl2 with a Potter–Elvehjem homogenizing system. The rat spleen and brain microsomal fractions were divided into equal aliquots, placed into microcentrifuge tubes, and stored at −80 °C for up to 2 months. Protein concentration of the microsomal fraction was determined by Lowry method.
(§3) Liver cytosol has been used as a source of biliverdin reductase (BVR). […] The 100,000 rpm supernatant was saved and then stored in small amounts at −80 °C after its protein concentration was measured.
(§4) The HO-1 and HO-2 activities were determined by measuring the BR formation using the difference in absorbance at 464 to 530 nm as described by Ryter et al.. […] After recovering the chloroform phase, the amount of BR formed was measured with a double-beam spectrophotometer as OD464-530 nm (extinction coefficient, 40 mM/cm^−1 for BR). […]

Series [4] deals with T2, HO-2 (Rattus norvegicus, UniProt P23711).
T2 construct: selected in order to use the most native (i.e., closest to in vivo) forms of HO-1 and HO-2; from tissue; host or cells: brain microsomal fraction of male Sprague-Dawley rats
T2 sequence (P23711 1-315): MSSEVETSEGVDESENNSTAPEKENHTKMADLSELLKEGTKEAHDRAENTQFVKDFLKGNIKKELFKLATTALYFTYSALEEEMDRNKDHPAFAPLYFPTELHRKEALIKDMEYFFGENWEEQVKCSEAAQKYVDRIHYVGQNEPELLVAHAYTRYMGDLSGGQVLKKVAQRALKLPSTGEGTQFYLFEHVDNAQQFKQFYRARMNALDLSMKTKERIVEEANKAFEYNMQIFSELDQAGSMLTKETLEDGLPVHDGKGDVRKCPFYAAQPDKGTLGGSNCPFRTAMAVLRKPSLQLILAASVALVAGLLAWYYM
Put plainly: HO-2 inhibition, rat brain microsomal fraction, bilirubin formation. It counts as biochemical. The note with it: rat brain microsomes; mean ± SD, triplicate. The method, then: HO-1 and HO-2 were obtained from rat spleen and brain, respectively, as the microsomal fraction prepared by differential centrifugation; the dominance of HO-1 protein in the rat spleen and of HO-2 in the rat brain has been well documented. These particular microsomal preparations were selected in order to use the most native (i.e., closest to in vivo) forms of HO-1 and HO-2. Spleen and brain (Sprague–Dawley rats) microsomal fractions were prepared according to the procedure outlined by Ryter et al.. The experiments reported in the present paper complied with current Italian law and met the guidelines of the Institutional Animal Care and Use Committee of University of Catania (Italy). The experiments were performed in male Sprague–Dawley albino rats (150 g body weight and age 45 d). […] Protein concentration of the microsomal fraction was determined by Lowry method.
as §3, §4

A word on the IC50: it is the midpoint of a concentration-inhibition curve. With `Clc1ccc(CCC2(Cn3ccnc3)OCCO2)cc1` [QC-15], the values for the IC50 with HO-1 [1] and in the series on HO-2 [2] were 2800 nM and more than 100 µM, respectively.
As to `Nc1ccc(SC[C@@H]2CO[C@](CCc3ccc(Cl)cc3)(Cn3ccnc3)O2)cc1` [Azalanstat], the IC50 is 5300 nM in the series with HO-1 [1] and 24.4 µM with HO-2 [2].
In the case of `FC(F)(F)c1ccc(SC[C@@H]2CO[C@@](CCc3ccc(Cl)cc3)(Cn3ccnc3)O2)nc1` [QC-80], the IC50 is 2100 nM in the series on HO-1 [1] and 16 µM with HO-2 [2].
As to `O=C(CCc1ccccc1)Cn1cncn1` [QC-86], the IC50 in the series with HO-2 [2] was 18 µM.
As for `O=C(CC(c1ccccc1)c1ccccc1)Cn1ccnc1` [QC-308], in the series with HO-2 [2], the IC50 was […].
As to `OC(Cn1ccnc1)c1cccc(Br)c1` (stereo not drawn) [Compound 1], the IC50 in the series on MDA-MB-231 cells came out at 82.6 ± 0.57 µM; with MCF-7 cells, 52.6 ± 3.76 µM; in the series on DU145 cells, 138 ± 2.7 µM; with PC3 cells, 165 ± 2.8 µM; in the series with LnCap cells, 158 ± 2.3 µM; in the series with B16 cells (Mus musculus, B16, 72 h), 42 µM. Besides, the IC50 with B16 cells worked out at 37 ± 7.25 µM; with HEK cells (HEK293, non-cancerous human embryonic kidney cells, 72 h, SRB) it was 364 ± 21.3 µM. The “Cytotoxic effect in combination with doxorubicin” value in the series with B16 cells (compound 1 (10 μM) with doxorubicin (5 μM), B16 cells) is given as “synergistic cytotoxic effect”. Also, in the series on HEK cells (cancer cell lines vs HEK), the “Selectivity for cancer cells with respect to healthy cells” value is 2–10 fold.
On to `O=C(Cn1ccnc1)C12CC3CC(CC(C3)C1)C2` [QC-82], for which the IC50 in the series with HO-1 [1] was 3000 nM; in the series on HO-2 [2], more than 100 µM.
As a reminder, the melting point is the temperature of the solid-liquid transition. On to `OC(Cn1ccnc1)C12CC3CC(CC(C3)C1)C2` (stereo not drawn) [Compound 4, 2-(1H-Imidazol-1-yl)-1-tricyclo[3.3.1.13,7]dec-1-yl-ethanol], for which the melting point lay within 182 to 183 °C. This molecule registered an IC50 against HO-1 [3] of 67.6 ± 2.1 µM.
On to `O=C(Cn1ccnc1)NC(c1ccccc1)c1ccccc1` [Compound 3, N-Benzhydryl-2-(1H-imidazol-1-yl)acetamide], for which the melting point is 196 to 197 °C. On HO-1 [3], the IC50 turned out to be 28.8 ± 1.4 µM. The same molecule registered an IC50 at HO-2 [4] of 14.4 ± 0.9 µM.
On to `Brc1cccc(C(Cn2ccnc2)OCc2ccccc2)c1` (stereo not drawn) [Compound 2, 1-[2-(3-Bromophenyl)-2-(phenylmethoxy)ethyl]-1H-imidazole], for which the midpoint of inhibition on HO-1 [3], the IC50, lay at 80 ± 3.3 µM. Also, at HO-1 [3] (ratio of HO-1 IC50 values), the “fold less potent towards HO-1 than parent compound 1” value is “around 200 fold”.
